In publication PMC9925730, “Controlled sequential in situ self-assembly and disassembly of a fluorogenic cisplatin prodrug for cancer theranostics” (Nature Communications, 2023):
Several values for one entry are separate records, joined by “and”; a condition that tells them apart may be missing. Identical values can stand only once.

What was measured:
s.c. HeLa tumors [1] = experiment: NIR FL imaging of s.c. HeLa tumors in vivo; set-up: species or system mice; conditions: i.v. 100 μM, 200 μL
Description: (§1) (100 μM, in 200 μL saline). Whole body FL images of mice prior to (pre) and at 1 h, 2 h, 4 h, 8 h post injection of P-CyPt or […] acquired on the IVIS Lumina XR III imaging system, using a 660 nm excitation filter and a 750 ± 50 nm emission filter. Each experiment was conducted in three mice. The FL intensities were quantified by the region of interest (ROI) measurement using Living Image Software (4.5.2, PerkinElmer, MA, U.S.A). […] (500 μM, in 200 μL saline). The PA images of the s.c. HeLa tumors in mice prior to (pre), and at 1, 2, 4 h post injection were captured on the Vevo 2100 LAZR system (FUJIFILM VisualSonics), with excitation at 700 and 750 nm. The PA intensities were quantified by the equipped software.

ALP [2] = molecular target: T1, ALP (Bos taurus, UniProt P19111); experiment: NIR FL, PA and absorption signals of P-CyPt in solution in response to ALP; assay type: biochemical; conditions: P-CyPt 10 μM; for normalized Abs. at 700 nm (Fig. 2j) / normalized Abs. at 750 nm (Fig. 2j) / normalized FL intensity at 710 nm (Fig. 2k) / normalized PA intensity at 700 nm (Fig. 2l) / normalized PA intensity at 750 nm (Fig. 2l): ALP 100 U/L 37 °C
T1 construct: Alkaline phosphatase from bovine; purchased Sigma-Aldrich; host or cells: bovine intestinal mucosa (tissue-derived)
T1 sequence (P19111 20-506 limits assumed): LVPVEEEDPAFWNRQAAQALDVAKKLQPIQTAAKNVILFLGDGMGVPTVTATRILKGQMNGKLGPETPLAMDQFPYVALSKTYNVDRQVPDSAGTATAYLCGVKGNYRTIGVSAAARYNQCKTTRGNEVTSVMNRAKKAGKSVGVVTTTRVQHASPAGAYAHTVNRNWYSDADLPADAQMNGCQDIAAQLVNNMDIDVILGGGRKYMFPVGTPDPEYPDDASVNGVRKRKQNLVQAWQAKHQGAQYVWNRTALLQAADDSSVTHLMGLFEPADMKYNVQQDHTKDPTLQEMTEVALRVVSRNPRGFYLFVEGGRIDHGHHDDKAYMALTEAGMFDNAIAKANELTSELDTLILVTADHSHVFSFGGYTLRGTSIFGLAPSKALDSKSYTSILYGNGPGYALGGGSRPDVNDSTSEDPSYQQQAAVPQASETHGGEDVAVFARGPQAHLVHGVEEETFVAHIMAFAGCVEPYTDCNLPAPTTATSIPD
Description: To monitor the NIR FL and PA imaging signals of P-CyPt in response to ALP, P-CyPt (10 μM) in Tris buffer (1 mL) was incubated with ALP (100 U/L) at 37 °C for 0, 5, 10, 15, 20, and 30 min. To monitor the NIR FL and PA imaging signals of Pt^IVNPs in response to GSH, P-CyPt (10 μM) in Tris buffer (1 mL) was first incubated with ALP (100 U/L) at 37 °C for 30 min and then incubated with 10 mM GSH at 37 °C for another 10, 20, 30, 40, 50, and 60 min. The NIR FL spectra of these solutions at each time point were acquired on a HORIBA Jobin Yvon Fluoromax-4 fluorescence spectrometer, with excitation at 680 nm. For PA imaging, the incubation solutions at each time point were loaded into a fine bore polythene tube ([…], 1.27 mm OD). The tubes were then sealed and immersed in water. The PA images at both 700 and 750 nm were acquired on the Vevo 2100 LAZR system (FUJIFILM VisualSonics).

HeLa cells = experiment: NIR FL and PA bimodality imaging of cell pellets; assay type: cell-based, human; conditions: for normalized FL of cell pellets (Fig. 3c): 30 min
ALP [3] = experiment: Dephosphorylated efficacy of P-CyPt towards varying concentrations of ALP (NIR fluorescence); assay type: biochemical; conditions: 250 μM
ALP [4] = experiment: Specificity of P-CyPt towards ALP (Trypsin, MMP-2, GGT, CTB, Caspase-3, ALP, ALP + Na3VO4); assay type: biochemical; conditions: for Normalized FL intensity at 710 nm, single replicate: individual replicates; for Normalized FL intensity at 710 nm, single replicate / Normalized FL intensity at 710 nm, mean: Supplementary Fig. 7b
s.c. HeLa tumors [5] = experiment: Fluorescence imaging of varying sizes of s.c. HeLa tumors; assay type: in vivo, mice; conditions: P-CyPt 100 μM, 200 μL i.v., 4 h
Description: page 21: Supplementary Figure 29. Fluorescence imaging of varying sizes of s.c. HeLa tumors in mice. (a) Representative fluorescence images of mice with s.c. HeLa tumors at a mean size of 3.8 ± 0.8, 22.1 ± 1.6, 46.4 ± 4.2, 75.9 ± 4.5 and 125.5 ± 12.7 mm3, respectively. […]) was i.v. injected into mice, and the whole-body fluorescence images were acquired at 0 and 4 h. Red arrows indicate the locations of tumors, and the black circle indicates the position chosen for the background in each mouse. (b) Calculated SBR in mice of different tumor sizes. […] Data denote mean ± s.d. (n = 3 independent animals). […] 21 (1 picture or pasted object on this page, not shown here)

[6] = tested on: orthotopic HepG2/Luc liver tumors; experiment: NIR FL imaging of orthotopic HepG2/Luc liver tumors in vivo; set-up: species or system mice
Description: as §1

[7] = HeLa, P-CyPt 10 μM 30 min then blank medium 3 h (Group II vs I)

SMILES: CC1(C)C(/C=C/C2=C3Oc4cc(OP(=O)(O)O)c(Cl)cc4C=C3CCC2)=[N+](CCCNC(=O)[C@@H](Cc2ccccc2)NC(=O)[C@@H](Cc2ccccc2)NC(=O)CCC(=O)[O][Pt]([NH2])([NH2])([OH])([Cl])[Cl])c2ccccc21 [P-CyPt]
- quantified FL intensity of HeLa tumors (Fig. 4c) (s.c. HeLa tumors [1]; 1 h): 1130000000
- quantified FL intensity of HeLa tumors (Fig. 4c) (s.c. HeLa tumors [1]; 2 h): 1040000000
- quantified FL intensity of HeLa tumors (Fig. 4c) (s.c. HeLa tumors [1]; 4 h): 886000000
- normalized Abs. at 700 nm (Fig. 2j) (ALP [2]; 0 min): 0.03754
- normalized Abs. at 750 nm (Fig. 2j) (ALP [2]; 0 min): 0.01756
- normalized FL intensity at 710 nm (Fig. 2k) (ALP [2]; 0 min): 0.979
- normalized PA intensity at 700 nm (Fig. 2l) (ALP [2]; 0 min): 0.1461
- normalized PA intensity at 750 nm (Fig. 2l) (ALP [2]; 0 min): 0.1527
- normalized Abs. at 700 nm (Fig. 2j) (ALP [2]; 5 min): 0.6947
- normalized Abs. at 750 nm (Fig. 2j) (ALP [2]; 5 min): 0.2821
- normalized FL intensity at 710 nm (Fig. 2k) (ALP [2]; 5 min): 5.873
- normalized PA intensity at 700 nm (Fig. 2l) (ALP [2]; 5 min): 0.4821
- normalized PA intensity at 750 nm (Fig. 2l) (ALP [2]; 5 min): 0.3333
- normalized Abs. at 700 nm (Fig. 2j) (ALP [2]; 10 min): 0.8107
- normalized Abs. at 750 nm (Fig. 2j) (ALP [2]; 10 min): 0.4361
- normalized FL intensity at 710 nm (Fig. 2k) (ALP [2]; 10 min): 6.541
- normalized PA intensity at 700 nm (Fig. 2l) (ALP [2]; 10 min): 0.5922
- normalized PA intensity at 750 nm (Fig. 2l) (ALP [2]; 10 min): 0.5187
- normalized Abs. at 700 nm (Fig. 2j) (ALP [2]; 15 min): 0.8996
- normalized Abs. at 750 nm (Fig. 2j) (ALP [2]; 15 min): 0.6102
- normalized FL intensity at 710 nm (Fig. 2k) (ALP [2]; 15 min): 6.902
- normalized PA intensity at 700 nm (Fig. 2l) (ALP [2]; 15 min): 0.7009
- normalized PA intensity at 750 nm (Fig. 2l) (ALP [2]; 15 min): 0.788
- normalized Abs. at 700 nm (Fig. 2j) (ALP [2]; 20 min): 0.9422
- normalized Abs. at 750 nm (Fig. 2j) (ALP [2]; 20 min): 0.6514
- normalized FL intensity at 710 nm (Fig. 2k) (ALP [2]; 20 min): 7.672
- normalized PA intensity at 700 nm (Fig. 2l) (ALP [2]; 20 min): 0.8542
- normalized PA intensity at 750 nm (Fig. 2l) (ALP [2]; 20 min): 0.9373
- normalized Abs. at 700 nm (Fig. 2j) (ALP [2]; 30 min): 0.996
- normalized Abs. at 750 nm (Fig. 2j) (ALP [2]; 30 min): 0.688
- normalized FL intensity at 710 nm (Fig. 2k) (ALP [2]; 30 min): 7.9669
- normalized PA intensity at 700 nm (Fig. 2l) (ALP [2]; 30 min): 0.9524
- normalized PA intensity at 750 nm (Fig. 2l) (ALP [2]; 30 min): 1.0015
- NIR FL at 710 nm switched on (ALP [2]; ALP 100 U/L, after 30 min): ~ 8 fold
- increase of PA signal at 700 nm (ALP [2]; ALP 100 U/L, after 30 min): more than sixfold
- increase of PA signal at 750 nm (ALP [2]; ALP 100 U/L, after 30 min): more than sixfold
- normalized FL of cell pellets (Fig. 3c) (HeLa cells; Group I: HeLa, P-CyPt 10 μM): 0.6736
- normalized FL of cell pellets (Fig. 3c) (HeLa cells; Group II: HeLa, P-CyPt 10 μM, then blank medium 3 h): 1
- normalized FL of cell pellets (Fig. 3c) (HeLa cells; Group III: HeLa preincubated with Na3VO4 (10 mM, 20 min), then P-CyPt 10 μM): 0.2415
- decrease of PA signal at 750 nm in cell pellets (HeLa cells; [7]): ~ 3.5 fold
- increase of NIR FL in cell pellets (HeLa cells; [7]): ~ 1.5 fold
- normalized signal over time (section 'Supplementary Fig. 2c'), mean of 3 (ALP [3]; time 260 min): 0.996
- normalized signal over time (section 'Supplementary Fig. 2c'), mean of 3 (ALP [3]; time 280 min): 0.9965
- normalized signal over time (section 'Supplementary Fig. 2c'), mean of 3 (ALP [3]; time 320 min): 0.9972
- normalized signal over time (section 'Supplementary Fig. 2c'), mean of 3 (ALP [3]; time 440 min): 0.9986
- Normalized FL intensity at 710 nm, single replicate (ALP [4]; Enzyme type: ALP+Na3VO4): 1.0416 and 1.0656 and 1.1392
- Normalized FL intensity at 710 nm, mean (ALP [4]; Enzyme type: ALP+Na3VO4, mean of 3 replicates): 1.082
- Normalized FL intensity at 710 nm, single replicate (ALP [4]; Enzyme type: ALP+PBS): 1.0305 and 1.3734 and 1.3861
- Normalized FL intensity at 710 nm, mean (ALP [4]; Enzyme type: ALP+PBS, mean of 3 replicates): 1.263
- Normalized FL intensity at 710 nm, single replicate (ALP [4]; Enzyme type: ALP): 7.7619 and 9.0065 and 9.1858
- Normalized FL intensity at 710 nm, mean (ALP [4]; Enzyme type: ALP, mean of 3 replicates): 8.651
- Normalized FL intensity at 710 nm, single replicate (ALP [4]; Enzyme type: CTB): 0.9991 and 1.017 and 1.1059
- Normalized FL intensity at 710 nm, mean (ALP [4]; Enzyme type: CTB, mean of 3 replicates): 1.041
- Normalized FL intensity at 710 nm, single replicate (ALP [4]; Enzyme type: GGT): 0.8869 and 1.0719 and 1.0726
- Normalized FL intensity at 710 nm, mean (ALP [4]; Enzyme type: GGT, mean of 3 replicates): 1.010
- Normalized FL intensity at 710 nm, single replicate (ALP [4]; Enzyme type: MMP-2): 0.9603 and 0.9824 and 1.1444
- Normalized FL intensity at 710 nm, mean (ALP [4]; Enzyme type: MMP-2, mean of 3 replicates): 1.029
- Normalized FL intensity at 710 nm, single replicate (ALP [4]; Enzyme type: Tris (buffer only)): 0.9358 and 0.9007 and 1.1635
- Normalized FL intensity at 710 nm, mean (ALP [4]; Enzyme type: Tris (buffer only), mean of 3 replicates): 1.000
- Normalized FL intensity at 710 nm, single replicate (ALP [4]; Enzyme type: Trypsin): 0.935 and 0.9815 and 1.0282
- Normalized FL intensity at 710 nm, mean (ALP [4]; Enzyme type: Trypsin, mean of 3 replicates): 0.982
- NIR fluorescence signal of P-CyPt after incubation with enzyme (Supplementary Fig. 7, enzyme types), individual replicates (ALP [4]; enzyme: Casepase-3, individual replicate values (n=3)): 1.0789 and 1.0855 and 1.1465
- NIR fluorescence signal of P-CyPt after incubation with enzyme (Supplementary Fig. 7, enzyme types), mean (ALP [4]; enzyme: Casepase-3, mean of 3 replicates): 1.104
- size of s.c. HeLa tumors still detected by NIR FL imaging (s.c. HeLa tumors [5]): 3.8 ± 0.8 mm^3
- quantified FL intensity of HepG2/Luc liver tumors (Fig. 5b) ([6]; 2 h): 9.80E+08
- quantified FL intensity of HepG2/Luc liver tumors (Fig. 5b) ([6]; 4 h): 8.66E+08
- quantified FL intensity of HepG2/Luc liver tumors (Fig. 5b) ([6]; 8 h): 3.61E+08
- quantified FL intensity of HepG2/Luc liver tumors (Fig. 5b) ([6]; i.v. 100 μM, 200 μL, 1 h): 1.05E+09
